In patent publication US20070202185A1, “Microencapsulated Delivery Vehicles Having Fugitive Layers” (KIMBERLY-CLARK WORLDWIDE, INC., priority 2005, published 2007):
Read-outs that look alike come from different tables or passages of the source.

System: Methicillin-resistant Staphylococcus aureus
Details: 0.005% PHMB versus no PHMB
Experimental: This Example utilized 1.5-milliliter tubes containing a 1-milliliter blend of phosphate-buffered saline (pH 7.2) and 5% (w/v) bovine serum albumin soil. The tubes were placed in electric heat blocks set for 22° C., 30° C., 40° C. and 50° C., respectively. The tubes remained in the electric heat blocks for approximately 10 minutes.
After 10 minutes, 0.005% (by weight) active polyhexamehtylene biguanide (PHMB) (commercially available as Cosmocil® CQ from Arch Biocides, Inc., United Kingdom) was added to two tubes at each temperature level. Duplicate tubes without PHMB at each temperature were also made.
The tubes were then vortexed and Methicillin-resistant Staphylococcus aureus (approximately 1×10^5 colony forming units (CFU)) was then added to each tube. All of the tubes were then placed back into the heat blocks at their respective temperatures.
Following a 10-minute contact time, 0.1 milliliters of each sample was transferred to 0.9 milliliters letheen broth to neutralize the PHMB activity. The letheen samples were then plated in duplicate on Tryptic Soy agar plates using a WASP2 spiral plater (commercially available from Don Whitley Scientific, Ltd., Yorkshire, United Kingdom). The plates were inverted and incubated at 37±2° C. for 48 hours.
After 48 hours, the plates were evaluated using a total plate count to determine the biocidal efficacy of each sample.

## polyhexamethylene biguanide [PHMB]
22° C.
  LOG10 Reduction: 2.1
30° C.
  LOG10 Reduction: 2.8
40° C.
  LOG10 Reduction: 3.5
50° C.
  LOG10 Reduction: >3.5
